Test results reported in patent US20240390306A1, “Monohydrate Salt of Denatonium Acetate” (priority 2021, published 2024).
Entries after “also recorded” stand apart in the source; their conditions may differ. Where two headings read alike, the source gives them in different places. Values belong to the molecule of their own block, whether it stands above or below them.

Columns and labels:
[1] = assay type: physicochemical; details: for form by XRPD after storage: closed vial, 6 weeks
Description: It was then removed from the instrument and a portion immediately analyzed by XRPD. […]
A summary of the characterization data for the samples of Pattern 5 can be found in Table 9.

[2] = Particle size distribution; assay type: physicochemical
Description: The sample was highly crystalline.

[3] = Polymorph screen: solvent addition to ca. 10 mg DAM, initial observation (solubility); assay type: physicochemical
Procedure: The resultant samples were refrigerated (solutions) or shaken at room temperature (suspensions) for several days. The samples that had initially formed solutions were examined for signs of solid formation after refrigeration. If solid material had formed, it was analyzed by XRPD. If no solid had formed the vials were uncapped and the solutions evaporated, and solid residues analyzed by XRPD. For samples which had initially formed suspensions-if solid was still present it was analyzed by XRPD. The supernatant from the suspension was filtered and then the filtrates were then treated as the solutions above. In some experiments further solid was obtained from evaporation of the filtrates and was analyzed by XRPD where the quantity of material allowed.

[4] = Storage under stress conditions (temperature / relative humidity); assay type: physicochemical
Description: It also lost mass when taken to relative humidity levels of less than 10%.
It also loses mass when taken to relative humidity levels of less than 10%.
It was then removed from the instrument and a portion immediately analyzed by XRPD.

[5] = Polymorph screen: solvent addition to ca. 10 mg DAM, initial observation (solubility); assay type: physicochemical; remark: listed apart in the source
[6] = Gravimetric Vapor Sorption (GVS) experiments; assay type: physicochemical
Procedure: Several Gravimetric Vapor Sorption (GVS) experiments were carried out to investigate the behavior of DAM over a range of different relative humidity levels. […] This experiment used a similar method to GVS 1 without the steps involving 90% RH where the large mass changes were observed and equilibrium was not reached. […] Most of the mass change (1.3-1.4% increase) occurred between 0-10% RH. […] It also loses mass when taken to relative humidity levels of less than 10%.

form stability [1]: metastable
form after standing ([1]; ambient laboratory conditions, within a few hours): converts to Pattern 1
form by XRPD after storage [1]: converted to Pattern 1
form by XRPD after storage ([1]; listed as DAM Pattern 5): Conversion to Pattern 1 by XRPD
form by XRPD after standing ([1]; on XRPD disc at room temperature overnight, listed as DAM Pattern 5): Conversion to Pattern 1 by XRPD
form by XRPD after standing ([1]; on XRPD disc, ambient laboratory conditions, 4 hours, listed as DAM Pattern 5): Conversion to Pattern 1 by XRPD
Structure (SMILES): CC(=O)[O-].CC[N+](CC)(CC(=O)Nc1c(C)cccc1C)Cc1ccccc1 [Pattern 5]
form by XRPD after standing ([1]; on XRPD disc at room temperature overnight): convert to Pattern 1; also recorded: reverted to Pattern 1

PSD D10 [2]: 1.62 μm
PSD D50 [2]: 23.09 μm
Initial observation ([3]; ca. 10 mg in 1-Pentanol, 50 μL): Soluble
Initial observation ([3]; ca. 10 mg in 2-Butanol, 50 μL): Soluble
Initial observation ([3]; ca. 10 mg in 2-Ethoxyethanol, 25 μL): Soluble
Initial observation ([3]; ca. 10 mg in 2-Methoxyethanol, 25 μL): Soluble
Initial observation ([3]; ca. 10 mg in Acetic acid, 25 μL): Soluble
Initial observation ([3]; ca. 10 mg in Acetone, 1000 μL): Soluble
Initial observation ([3]; ca. 10 mg in Diisopropyl ether, 1000 μL): Suspension
Initial observation ([3]; ca. 10 mg in Dimethylsulfoxide, 100 μL): Solution
Initial observation ([3]; ca. 10 mg in Ethyl acetate, 1000 μL): Suspension
Initial observation ([3]; ca. 10 mg in Ethyl formate, 50 μL): Soluble
Initial observation ([3]; ca. 10 mg in MeCN + 5% water, 50 μL): Solution
Initial observation ([3]; ca. 10 mg in MeOH + 5% water, 25 μL): Solution
Initial observation ([3]; ca. 10 mg in Methylethyl ketone, 800 μL): Soluble
Initial observation ([3]; ca. 10 mg in Tetrahydrofuran, 1000 μL): Suspension
form by XRPD after storage ([4]; 25° C., 96% RH, 7 days): Amorphous
Initial observation ([5]; ca. 10 mg in 1,2-Dimethoxyethane, 1000 μL): Suspension
Initial observation ([5]; ca. 10 mg in 1,4-Dioxane, 1000 μL): Suspension
Initial observation ([5]; ca. 10 mg in 1-Butanol, 50 μL): Soluble
Initial observation ([5]; ca. 10 mg in 1-Propanol, 25 μL): Soluble
Initial observation ([5]; ca. 10 mg in 2-Methyl-1-Propanol, 50 μL): Soluble
Initial observation ([5]; ca. 10 mg in 2-Pentanone, 1000 μL): Suspension
Initial observation ([5]; ca. 10 mg in 2-Propanol, 50 μL): Soluble
Initial observation ([5]; ca. 10 mg in 3-Methyl-1-Butanol, 50 μL): Soluble
Initial observation ([5]; ca. 10 mg in 4-Methyl-2-pentanone, 1000 μL): Suspension
Initial observation ([5]; ca. 10 mg in Acetone + 5% water, 50 μL): Solution
Initial observation ([5]; ca. 10 mg in Acetonitrile, 200 μL): Soluble
Initial observation ([5]; ca. 10 mg in Anisole, 750 μL): Suspension
Initial observation ([5]; ca. 10 mg in Benzonitrile, 500 μL): Nearly all
Initial observation ([5]; ca. 10 mg in Benzyl alcohol, 25 μL): Solution
Initial observation ([5]; ca. 10 mg in Butyl acetate, 1000 μL): Suspension
Initial observation ([5]; ca. 10 mg in Chloroform, 50 μL): Soluble
Initial observation ([5]; ca. 10 mg in Cumene, 1000 μL): Suspension
Initial observation ([5]; ca. 10 mg in Diethyl ether, 1000 μL): Suspension
Initial observation ([5]; ca. 10 mg in EtOH + 5% water, 25 μL): Solution
Initial observation ([5]; ca. 10 mg in Ethanol, 25 μL): Soluble
Initial observation ([5]; ca. 10 mg in Formic acid, 25 μL): Soluble
Initial observation ([5]; ca. 10 mg in IPA + 5% water, 50 μL): Solution
Initial observation ([5]; ca. 10 mg in Isobutyl acetate, 1000 μL): Suspension
Initial observation ([5]; ca. 10 mg in Isopropyl acetate, 1000 μL): Suspension
Initial observation ([5]; ca. 10 mg in Methanol, 25 μL): Soluble
Initial observation ([5]; ca. 10 mg in Methyl acetate, 1000 μL): Suspension
Initial observation ([5]; ca. 10 mg in Methylbutyl ketone, 1000 μL): Suspension
Initial observation ([5]; ca. 10 mg in Pentane, 1000 μL): Suspension
Initial observation ([5]; ca. 10 mg in Propyl acetate, 1000 μL): Suspension
Initial observation ([5]; ca. 10 mg in Toluene, 1000 μL): Suspension
Initial observation ([5]; ca. 10 mg in Water, 20 μL): Soluble
Initial observation ([5]; ca. 10 mg in heptane, 1000 μL): Suspension
Initial observation ([5]; ca. 10 mg in t-Butanol, 100 μL): Soluble
Initial observation ([5]; ca. 10 mg in t-Butylmethyl ether, 1000 μL): Suspension
Structure (SMILES): CC(=O)[O-].CC[N+](CC)(CC(=O)Nc1c(C)cccc1C)Cc1ccccc1 [DAM, denatonium acetate monohydrate]
form by XRPD after storage ([4]; 0% RH (open vial in GVS instrument, 2 days), acetate monohydrate): converted to Pattern 5; also recorded: consistent with Pattern 5; also recorded: change in form to Pattern 5
form by XRPD after storage ([4]; 40° C., 75% RH, 7 days): Shows no change in form by XRPD after 7 days
sample appearance after GVS ([6]; post GVS 1 (40-90-0-90-0-40)): sorption cycle. Sample had formed a solid mass with powdery
sample appearance after GVS ([6]; post GVS 2 (40-80-0-80-0-40), acetate monohydrate): remained as a free-flowing powder; also recorded: Sample remained free flowing solid
sample appearance after GVS ([6]; post GVS 3 (40-0-80-0-80-0-40), acetate monohydrate): remained as a free-flowing powder; also recorded: Sample remained free flowing solid
